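Briefly, cells in 96-well plates were exposed to five compound concentrations for 48 h, and endpoints were estimated by linear interpolation. Here, GI50 denotes the concentration required for 50% inhibition of growth.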 Active and inactive are the calls of the source. Cut-off read from the data, not from the text of the source: active = GI50 up to about 1.1 µM and inactive = higher.

What all share (assay): DTP human tumour cell line panel, 48 h
The test system of assay [1] is 786-0.
For assay [2], the system named is A549.
Assay [3] deals with ACHN.
Assay [4] has as its system COLO 205.
For assay [5], the system named is DU-145.
For assay [6], the system named is HL-60.
Assay [7] deals with HOP-62.
Assay [8] relates to HT-29.
For assay [9], the system named is IGROV-1.
The subject of assay [10] is K562.
Assay [11] concerns KM12.
The subject of assay [12] is M14.
Assay [13] relates to MDA-MB-231.
Assay [14] concerns NCI-H23.
Assay [15] relates to NCI-H522.
For assay [16], the system named is RPMI-8226.
The test system of assay [17] is SK-MEL-28.
Assay [18] deals with SNB-19.
The subject of assay [19] is SR.
For assay [20], the system named is UACC-62.

The term GI50 denotes the concentration giving 50% growth inhibition. In the case of `Oc1ccc(Cc2cc(Cl)cc(Cl)c2O)cc1Cl`, the GI50 is 20.3 µM (inactive) in assay [1]; 19.1 µM (inactive) in assay [2]; 17.4 µM (inactive) in [3]; 19 µM (inactive) in [4]; 10.1 µM (inactive) in assay [5]; 1.04 µM (active) in assay [6]. Also, the GI50 in [7] was 19.2 µM (inactive); in assay [8] it was 20.1 µM (inactive); in assay [9], 17.9 µM (inactive); in [10] it was 15.5 µM (inactive); in [11] it was 20 µM (inactive); in assay [12], 15.7 µM (inactive). Moreover, the GI50 was 18.6 µM (inactive) in assay [13]; 16.3 µM (inactive) in assay [14]; 16.7 µM (inactive) in [15]; 22.3 µM (inactive) in [16]; 17.3 µM (inactive) in assay [17]; 16.9 µM (inactive) in [18]. The figures for the GI50 in assay [19] and in assay [20] were 14.2 µM (inactive) and 14.7 µM (inactive), respectively.

With `Cc1cc(C)c(S(=O)(=O)N(CCCN)OCCCON(CCCN)S(=O)(=O)c2c(C)cc(C)cc2C)c(C)c1`, the GI50 is 2.33 µM (inactive) in assay [1]; 1.77 µM (inactive) in assay [2]; 15.3 µM (inactive) in assay [3]; 1.78 µM (inactive) in assay [4]; 1.71 µM (inactive) in assay [5]; 1.91 µM (inactive) in assay [6]. In addition, the GI50 in [7] was 1.91 µM (inactive); in [8], 1.67 µM (inactive); in [9] it was 1.98 µM (inactive); in assay [10] it was 2.69 µM (inactive); in assay [11], 1.9 µM (inactive); in assay [12], 1.75 µM (inactive). The GI50 in assay [13] was 1.77 µM (inactive); in [14] it was 2.18 µM (inactive); in assay [15], 1.47 µM (inactive); in assay [16], 2.38 µM (inactive); in assay [17], 1.91 µM (inactive); in [18], 1.75 µM (inactive). The figures for the GI50 in assay [19] and in assay [20] were 2.07 µM (inactive) and 2.52 µM (inactive), respectively.

For the compound `Cn1c(=O)c2c(nc(N)n2C2OC(CO)C(O)C2O)n(C)c1=O` (centres undefined), the GI50 in assay [1], in assay [2], in assay [3], in assay [4], in assay [5] and in assay [6] was > 100 µM (inactive) throughout. Further, the GI50 in [7], in assay [8], in [9], in [10], in [11] and in assay [12] was > 100 µM (inactive) in each case. Also, the GI50 in assay [13], in assay [14], in [15], in [16], in assay [17] and in [18] was > 100 µM (inactive) in each case. Further, the GI50 in assay [19] and in assay [20] was > 100 µM (inactive) each time.

`Clc1cccc(Cl)c1C1SCc2nc3ncccc3n21` (centres undefined): the GI50 in assay [1] was > 100 µM (inactive); in assay [2], > 100 µM (inactive); in [3], > 100 µM (inactive); in assay [4], > 100 µM (inactive); in assay [5], > 100 µM (inactive); in assay [6], 60.7 µM (inactive). Moreover, the GI50 in [7] is > 100 µM (inactive); in assay [8] it was > 100 µM (inactive); in assay [9], > 100 µM (inactive); in [10] it was 49.5 µM (inactive); in [11], 52.8 µM (inactive); in assay [12], > 100 µM (inactive). Also, the GI50 in assay [13] is 19 µM (inactive); in assay [14], > 100 µM (inactive); in assay [15], > 100 µM (inactive); in [16] it was 80.4 µM (inactive); in [17], > 100 µM (inactive); in assay [18], > 100 µM (inactive). Moreover, the GI50 in assay [19] and in assay [20] was > 100 µM (inactive) each time.

On to `C=C([C@@]1(O)C[C@H]2[C@H](CCC2(OC)OC)[C@@H]2c3ccccc3O[C@@H]21)[Si](C)(C)C`, for which the GI50 is > 100 µM (inactive) in [1]; > 100 µM (inactive) in assay [2]; > 100 µM (inactive) in assay [3]; > 100 µM (inactive) in [4]; > 100 µM (inactive) in assay [5]; 25.5 µM (inactive) in assay [6]. Also, the GI50 is > 100 µM (inactive) in assay [7]; > 100 µM (inactive) in assay [8]; > 100 µM (inactive) in assay [9]; 59.3 µM (inactive) in assay [10]; > 100 µM (inactive) in [11]; > 100 µM (inactive) in assay [12]. Besides, the GI50 was > 100 µM (inactive) in assay [13]; 89.7 µM (inactive) in assay [15]; 44.4 µM (inactive) in assay [16]; > 100 µM (inactive) in assay [17]; > 100 µM (inactive) in assay [18]; 31.9 µM (inactive) in assay [19]. The GI50 in [20] was > 100 µM (inactive).

As to `CC(C)=CC[C@]12CCN(C)[C@H]1N(S(=O)(=O)c1ccccc1)c1ccccc12`, the GI50 in [1] is 42.3 µM (inactive); in [3] it was > 54.2 µM (inactive); in assay [5], > 30.8 µM (inactive); in [6], 28.4 µM (inactive); in assay [7] it was > 45.4 µM (inactive); in [8] it was > 46.5 µM (inactive). Besides, the GI50 in assay [9] was > 56.9 µM (inactive); in [10], > 43.2 µM (inactive); in assay [11], 26.1 µM (inactive); in assay [13], > 52.4 µM (inactive); in assay [14], > 19.9 µM (inactive); in assay [15], 15.8 µM (inactive). Besides, the GI50 was 29.9 µM (inactive) in assay [16]; > 64.6 µM (inactive) in assay [17]; > 20.3 µM (inactive) in [18]; 20.7 µM (inactive) in assay [19]; > 35.6 µM (inactive) in assay [20].

On to `O=c1c(Br)c(-c2ccccc2)[s+]([O-])c2ccccc12` (centres undefined), for which the GI50 is 2.7 µM (inactive) in assay [1]; 24.2 µM (inactive) in assay [2]; 2.52 µM (inactive) in [3]; 1.89 µM (inactive) in assay [4]; 14.2 µM (inactive) in assay [5]; 2.11 µM (inactive) in [6]. In addition, the GI50 in assay [7] was 2.43 µM (inactive); in assay [8], 13.2 µM (inactive); in [9], 10.1 µM (inactive); in assay [10], 2.74 µM (inactive); in [11] it was 15.8 µM (inactive); in assay [12] it was 12.9 µM (inactive). For the same compound, the GI50 in [13] is 14.8 µM (inactive); in assay [14], 16 µM (inactive); in [15] it was 1.68 µM (inactive); in assay [16], 1.61 µM (inactive); in assay [17], 13 µM (inactive); in [18], 18.2 µM (inactive). In addition, the GI50 in assay [19] was 2.06 µM (inactive); in [20] it was 13.7 µM (inactive).

Consider `CCC1=C(CC2NCCc3ccccc32)CC2c3cc(OC)c(OC)cc3CCN2C1` (centres undefined), for which the concentration for 50% growth inhibition (GI50) is 0.338 µM (active) in assay [1]; 0.343 µM (active) in [2]; 0.367 µM (active) in assay [3]; 0.356 µM (active) in assay [5]; 0.847 µM (active) in assay [6]; 0.627 µM (active) in [7]. Moreover, the GI50 in assay [8] was 0.284 µM (active); in [9] it was 0.693 µM (active); in [10], 0.286 µM (active); in assay [11], 0.443 µM (active); in assay [12] it was 0.502 µM (active); in assay [13], 0.358 µM (active). Further, the GI50 is 0.94 µM (active) in [14]; 0.316 µM (active) in assay [15]; 0.392 µM (active) in assay [16]; 1.16 µM (inactive) in [17]; 0.614 µM (active) in assay [18]; 0.342 µM (active) in [19]. Also, the GI50 in assay [20] is 1.29 µM (inactive).

As for `CCCc1cc(=O)oc2c(C=O)c(O)cc(O)c12`, the GI50 in assay [1] is 30.1 µM (inactive); in assay [2] it was 31.7 µM (inactive); in assay [3], 26.5 µM (inactive); in [4], 17.7 µM (inactive); in assay [5], 27.5 µM (inactive); in assay [6], 18.3 µM (inactive). In addition, the GI50 in assay [7] was 22.3 µM (inactive); in assay [8], 22.1 µM (inactive); in [9] it was 30.9 µM (inactive); in assay [10], 57.4 µM (inactive); in [11], 22.7 µM (inactive); in assay [12], 22.8 µM (inactive). For the same compound, the GI50 in [13] is 17.5 µM (inactive); in assay [14] it was 20.3 µM (inactive); in assay [15], 15.1 µM (inactive); in assay [16] it was 28 µM (inactive); in [17], 23.2 µM (inactive); in assay [18] it was 25.8 µM (inactive). Further, the GI50 is 27.8 µM (inactive) in assay [19] and 19.8 µM (inactive) in [20].

Take `CC(C)=CCN1c2ccccc2NC(=O)CC1C` (centres undefined): the GI50 in assay [1] is > 100 µM (inactive); in assay [2], > 100 µM (inactive); in assay [3] it was 71.1 µM (inactive); in [4], > 100 µM (inactive); in [5] it was > 100 µM (inactive); in [6], 61.2 µM (inactive). Besides, the GI50 in [7], in [8], in assay [9], in assay [10], in assay [11] and in assay [12] was > 100 µM (inactive) in each case. Also, the GI50 in [13], in [14], in assay [15], in assay [16], in assay [17] and in assay [18] was > 100 µM (inactive) in each case. Besides, the GI50 in assay [19] is 56.5 µM (inactive).

For the origin of these results see ChEMBL document CHEMBL1201862, “PubChem BioAssay data set” (2004).
